PubChem BioAssay (NCI)
Values joined by “and” are separate entries in the source; they are usually repeats but may differ in a detail not shown here. Equal entries are not always repeated.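 All cell lines were grown in 96-well plates and treated with compound for 48 hours. Here, GI50 denotes the concentration required for 50% inhibition of growth. Definition used: TGI = concentration required for complete inhibition of growth.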 Where a SMILES comes first, the peptide text is derived from it. [ ]: non-standard residue; d: D form. The star is where a group is joined. Bn2Val = CC(C)[C@@H](C(=O)*)N(Cc1ccccc1)Cc1ccccc1; NH(3,4-diMeO-benzyl) = COc1ccc(CN*)cc1OC; NMeV = CN[C@H](C(=O)O)C(C)C; dNMeA = CN[C@H](C)C(=O)O

Experiments:
Assay in all cases: NCI tumour cell line growth inhibition, 48 h
HCT-116 colon = tested on: HCT-116 colon
A549 NSCLC = tested on: A549 NSCLC
SF-295 CNS = tested on: SF-295 CNS
LOX IMVI melanoma = tested on: LOX IMVI melanoma
NCI-H522 lung = tested on: NCI-H522 lung
A498 renal = tested on: A498 renal
HT29 colon = tested on: HT29 colon
CAKI-1 renal = tested on: CAKI-1 renal
UACC-62 melanoma = tested on: UACC-62 melanoma
SR leukemia = tested on: SR leukemia

Structure (SMILES)	TGI (HCT-116 colon)	TGI (A549 NSCLC)	TGI (SF-295 CNS)	TGI (LOX IMVI melanoma)	TGI (NCI-H522 lung)	TGI (A498 renal)	TGI (HT29 colon)	TGI (CAKI-1 renal)	TGI (UACC-62 melanoma)	TGI (SR leukemia)	GI50 (NCI-H522 lung)	GI50 (CAKI-1 renal)	GI50 (SR leukemia)	GI50 (HCT-116 colon)	GI50 (A549 NSCLC)	GI50 (SF-295 CNS)	GI50 (LOX IMVI melanoma)	GI50 (HT29 colon)	GI50 (UACC-62 melanoma)	GI50 (A498 renal)
O=C1CC[C@H]2CNC(=O)C[C@H]2C1	> 100 µM	> 100 µM	> 100 µM	> 100 µM	> 100 µM	> 100 µM	> 100 µM	> 100 µM	> 100 µM	–	–	–	–	–	–	–	–	–	–	–
O=[N+]([O-])c1ccc(NSc2ccccc2)cc1	> 100 µM	> 100 µM	79 µM	28 µM	39.4 µM	–	–	–	55.7 µM	63.2 µM	–	–	–	–	–	–	–	–	–	–
CCCNC(=O)OCc1c(COC(=O)NCCC)c(-c2ccc(Cl)c(Cl)c2)n2c1CCC2	17.7 µM	33.2 µM	12.3 µM	15.8 µM	4.32 µM	3.24 µM	19.2 µM	8.2 µM	13.3 µM	–	–	–	–	–	–	–	–	–	–	–
O=C(O)/C=C/C(=O)Nc1ncn[nH]1	> 100 µM	> 100 µM	> 100 µM	> 100 µM	> 100 µM	> 100 µM	> 100 µM	> 100 µM	> 100 µM	–	–	–	–	–	–	–	–	–	–	–
Cc1cccc2c3ccc4c(c3n(C)c12)C(=O)C=CC4=O	> 100 µM	> 100 µM	> 100 µM	–	> 100 µM	–	> 100 µM	> 100 µM	> 100 µM	> 100 µM	–	–	–	–	–	–	–	–	–	–
COc1ccc(N=Cc2cc(OC)c(OC)c(OC)c2)cc1	> 100 µM	> 100 µM	–	> 100 µM	> 100 µM	> 100 µM	> 100 µM	> 100 µM	> 100 µM	–	> 100 µM	> 100 µM	–	–	–	–	–	–	–	–
COc1nc2c(cc1S(=O)(=O)c1ccccc1)CCc1c-2cnn1-c1ccccc1Cl	> 100 µM	> 100 µM	> 100 µM	> 100 µM	> 100 µM	–	> 100 µM	> 100 µM	> 100 µM	> 100 µM	3.02 µM	5.2 µM	5.01 µM	5.31 µM	4.97 µM	5.72 µM	> 100 µM	4.73 µM	7.29 µM	–
C[C@]12CCC(=O)C=C1CC[C@@H]1C2CC[C@]2(C)NC(=O)C(C#N)CC12 (stereo not given in full)	> 100 µM	> 100 µM	> 100 µM	–	–	> 100 µM	> 100 µM	> 100 µM	> 100 µM	–	–	–	–	–	–	–	–	–	–	–
C/C(=N\NC(N)=S)c1ccc(C)cc1C	> 100 µM	> 100 µM	> 100 µM	> 100 µM	–	> 100 µM	> 100 µM	> 100 µM	> 100 µM	> 100 µM	–	–	–	–	–	–	–	–	–	–
OCc1c(-c2cccc3ccccc23)sc(-c2cccc3ccccc23)c1CO	–	–	28.2 µM	30.5 µM	22.9 µM	–	31.5 µM	–	23.5 µM	44 µM	–	–	–	–	–	–	–	–	–	–
CC1=CCCC(OC(N)=O)C1 (stereo not given)	> 100 µM	> 100 µM	> 100 µM	> 100 µM	–	> 100 µM	> 100 µM	> 100 µM	> 100 µM	–	–	–	–	–	–	–	–	–	–	–
CC(C)(C)C1=NC(S)NC(CCC(=O)Nc2ccccc2[N+](=O)[O-])=C1 (stereo not given)	> 100 µM	> 100 µM	> 100 µM	> 100 µM	–	–	> 100 µM	> 100 µM	> 100 µM	> 100 µM	–	–	–	–	–	–	–	–	–	–
COc1ccc(CNC(=O)[C@@H](C)N(C)C(=O)[C@@H]2CCCN2C(=O)[C@H](C(C)C)N(C)C(=O)[C@@H](NC(=O)[C@H](C(C)C)N(Cc2ccccc2)Cc2ccccc2)C(C)C)cc1OC (Bn2Val-V[NMeV]P[dNMeA]-{NH(3,4-diMeO-benzyl)})	14.4 µM and 17.7 µM	50 µM and > 100 µM	13.8 µM and 23 µM	15.4 µM and 26.2 µM	10.7 µM and 45.1 µM	23.7 µM	12.2 µM and 10.6 µM	47 µM and 30.5 µM	14 µM and 27.2 µM	–	9.05 µM	12.7 µM	–	4.87 µM	53.3 µM	9.29 µM	6.35 µM	3.08 µM	13.5 µM	–
S=C1NCCN1C1=Nc2ccccc2CO1	> 100 µM	> 100 µM	> 100 µM	> 100 µM	> 100 µM	–	> 100 µM	> 100 µM	> 100 µM	> 100 µM	> 100 µM	> 100 µM	> 100 µM	> 100 µM	> 100 µM	> 100 µM	> 100 µM	> 100 µM	> 100 µM	–
O=C(/C=C(\[O-])c1ccccc1)CCCCCCC(=O)/C=C(\[O-])c1ccccc1.O=C(/C=C(\[O-])c1ccccc1)CCCCCCC(=O)/C=C(\[O-])c1ccccc1.O=C(/C=C(\[O-])c1ccccc1)CCCCCCC(=O)/C=C(\[O-])c1ccccc1.[La+3].[La+3]	> 50 µM	> 50 µM	–	> 50 µM	> 50 µM	> 50 µM	> 50 µM	> 50 µM	> 50 µM	–	> 50 µM	> 50 µM	–	> 50 µM	> 50 µM	–	> 50 µM	> 50 µM	> 50 µM	> 50 µM
COc1cc2c(cc1O)[C@H](Cc1ccc(Oc3cc(C[C@H]4c5cc(OC)c(OC)cc5CCN4C)ccc3OC)cc1)NCC2	20.9 µM	32.8 µM	24.2 µM	22.4 µM	–	28.3 µM	19.4 µM	19.8 µM	32.1 µM	30.1 µM	–	–	–	–	–	–	–	–	–	–
O=C1/C(=C/c2ccccc2)CN(C(=O)Oc2ccc(Cl)cc2)C/C1=C\c1ccccc1	0.593 µM	16.6 µM	5.79 µM	2.51 µM	5.51 µM	7.81 µM	2.97 µM	–	5.42 µM	4.33 µM	–	–	–	–	–	–	–	–	–	–
COc1cc([C@@H]2c3cc4c(cc3[C@@H](NC(=O)c3cccc([N+](=O)[O-])c3)C3COC(=O)[C@@H]32)OCO4)cc(OC)c1O (stereo not given in full)	> 34.8 µM	1.72 µM	3.99 µM	9.41 µM	–	–	11.7 µM	4.31 µM	7.54 µM	–	–	–	–	–	–	–	–	–	–	–
Cn1c(-c2nonc2N)nc2cnccc21	> 25 µM	> 25 µM	> 25 µM	> 25 µM	> 25 µM	> 25 µM	> 25 µM	> 25 µM	> 25 µM	–	> 25 µM	13.7 µM	–	> 25 µM	> 25 µM	> 25 µM	> 25 µM	> 25 µM	> 25 µM	16 µM
O=C1NC(=O)C2C(=O)NC(=O)C1C2(c1ccccc1)c1ccc(Cl)cc1 (stereo not given)	–	> 100 µM	> 100 µM	> 100 µM	> 100 µM	> 100 µM	> 100 µM	> 100 µM	> 100 µM	–	–	–	–	–	–	–	–	–	–	–
